The results in this text go back to article PMC10291553, “Exploring Structure–Activity Relationships in Photodynamic Therapy Anticancer Agents Based on Ir(III)-COUPY Conjugates” (Journal of Medicinal Chemistry, 2023).

Like-named read-outs stand apart in the source and are kept apart here.

The assay concerns A2780cis cells. Nature of the assay: Photo- and cytotoxic activity determination (MTT), A2780cis cells, normoxia or hypoxia. The format is cell-based. Conditions: A2780cis; for inhibition at 250 µM: 2 h incubation in the dark, 48 h drug-free recovery. The text has this: Having shown that the Ir(III)-COUPY conjugates can sensitize both type I and II ROS through spectroscopic techniques and readily internalize into living cells, their photocytotoxicity was screened in various cancer cell lines. This screening included two representative melanoma cell lines (human A375 and […] human SK-MEL-28) and cancer cells with resistance to the clinical drug cisplatin. For the latter, both sensitive and cisplatin-resistant ovarian cancer cells (A2780 and A2780cis) as well as HeLa cells, which also show a degree of chemoresistance to the platinum anticancer drug in vitro,[54] were used. For the determination of dark and light cytotoxicity, dose–response curves were assayed from both conditions to provide the correspondent IC50 values, which correspond to the concentration needed for inhibition of cell growth by 50%. Phototherapeutic index (PI) was calculated as the ratio of dark to light IC50 value for each compound.
A375, HeLa, and SK-MEL-28 cells were cultured in Dulbecco’s modified Eagle medium (DMEM) supplemented with 10% FBS, L-glutamine, and 1% penicillin–streptomycin. A2780 and A2780cis cells were grown in RPMI-1640 cell medium supplemented with 10% fetal bovine serum (FBS) and 2 mM L-glutamine. Acquired resistance to cisplatin in the A2780cis cell line was maintained by adding cisplatin 1 μM to culture medium every second passage. Cells were cultured in a humidified incubator at 310 K with 5% CO2 atmosphere and subcultured two or three times a week with appropriate densities and were confirmed to be mycoplasma-free using a standard Hoechst DNA staining method.
A2780, A2780cis, HeLa, A375, and SK-MEL-28 cells were maintained at logarithmic growth-phase and cultured in 96-well plates at a density of 5000 cells/well in complete medium for 24 h at 310 K, 5% CO2 in a humidified incubator. For hypoxia experiments, a hypoxia condition was set up by Tissue Culture Service at University of Murcia using nitrogen (N2) to displace O2 down to a minimum of 2% in a Forma Steri-Cycle i160 incubator (Thermo Fisher Scientific). […] A light-based treatment schedule was performed as follows: 1 h incubation with the compounds in the dark, followed by 1 h incubation under irradiation conditions by placing the Photoreactor EXPO-LED from Luzchem (Canada) fitted with green lamps (final light intensity applied of 1.5 mW/cm^2 at λmax = 520 nm) inside the CO2 incubator. All the cell culture plates subjected to light irradiation included untreated controls to verify that cell viability was not affected by light. Then, treatment-containing media was removed, and fresh media was added for a 48 h cell recovery period; the temperature throughout the experiment remained at 310 K. Dark control samples were placed in the same dark conditions and then kept incubated for 1 h in the dark in the humidified CO2 incubator. Medium was then aspirated by suction, cells were loaded with 50 μL of MTT solution (1 mg/mL) for additional 4 h and then removed, and 50 μL of DMSO was added to solubilize the purple formazan crystals formed in active cells. The absorbance was measured at 570 nm using a microplate reader (FLUOstar Omega), and the IC50 values were calculated based on the inhibitory rate curves using the following equation [drawing 4] 4 where I represents the percentage inhibition of viability observed, Imax is the maximal inhibitory effect, IC50 is the concentration that inhibits 50% of maximal growth, C is the concentration of the treatment, and n is the slope of the semi-logarithmic dose–response sigmoidal curves. The non-linear fitting was performed using SigmaPlot 14.0 software. All experiments were performed in three independent studies with n = 3 replicates per concentration level. For a detailed phototoxicity procedure, ref ([43]) includes technical explanations.

Take `NCC(=O)CCC(=O)O` [5-ALA, 5-aminolevulinic acid, reference compound]: the inhibition at 250 µM stood at 1 ± 0.2% (hypoxia, read-out: Partial inhibition (% of cell growth inhibition with respect to untreated controls), Hypoxia) and 3.5 ± 0.4% (normoxia, read-out: Partial inhibition (% of cell growth inhibition with respect to untreated controls), Normoxia). For the same compound, the IC50 (hypoxia 2% O2, 1 h incubation + 1 h green light 520 nm, 48 h drug-free, read-out: Hypoxia 520 nm IC50) is greater than 250 µM; the half-inhibitory concentration (IC50) (hypoxia 2% O2, dark, tested up to 250 μM, read-out: Hypoxia Dark IC50) is greater than 250 µM; the IC50 (hypoxia, 520 nm, read-out: A2780cis Light 520 nm IC50 (microM) Hypoxia) was greater than 250 µM; the IC50 (hypoxia, dark, read-out: A2780cis Dark IC50 (microM) Hypoxia) was greater than 250 µM; the IC50 (normoxia 21% O2, dark, tested up to 250 μM, read-out: Normoxia Dark IC50) was greater than 250 µM; the IC50 (normoxia, 520 nm, read-out: A2780cis Light 520 nm IC50 (microM) Normoxia) turned out to be 62 ± 12 µM. Further, where the note is “normoxia, dark, up to 250 microM, read-out: A2780cis Dark IC50 (microM) Normoxia”, the concentration for half-maximal inhibition (IC50) is greater than 250 µM. The “Normoxia PI (phototherapeutic index)” value (normoxia 21% O2, 520 nm, dark tested up to 250 μM) is listed as greater than 4.0.
